Reference: patent US20030013660A1, “Dioxolane analogs for improved inter-cellular delivery” (Shire BioChem Inc., priority 2000, published 2003)
Where two headings read alike, the source gives them in different places.

Tests used:
Assay in all cases: 3H-TdR (3H-thymidine) incorporation assay at 72 hr
H-460 = assay type: cell-based, Human; conditions: 3H-TdR incorporation at 72 hr
MCF-7 = assay type: cell-based, Human; conditions: 3H-TdR incorporation at 72 hr
SF-268 = assay type: cell-based, Human; conditions: 3H-TdR incorporation at 72 hr
CCRF-CEM = assay type: cell-based; conditions: 3H-TdR incorporation at 72 hr
Experimental: (§1) Table of IC50 Values (μM) for Controls
(§2) Exposition of 24 hr to drug, wash, incubated for another 48 hr (total of 72 hr assay)
(§3) (3H-Thymidine Incorporation Assay)

CEM/dCK- = assay type: cell-based; conditions: for IC50: deoxycytidine kinase-deficient CCRF-CEM; for Factor* (Resistance Factor = Ratio of dCK- on Wild-type CCRF-CEM): ratio of IC50 CEM/dCK- to CCRF-CEM, 24 h
Experimental: as §1, §2, §3

[1] = Homo sapiens, NCI-H460, read-out: IC50 H-460 24 h, 24 h drug exposure, wash, another 48 hr
[2] = Homo sapiens, MCF7, read-out: IC50 MCF-7 24 h, 24 h drug exposure, wash, another 48 hr
[3] = Homo sapiens, SF-268, read-out: IC50 SF-268 24 h, 24 h drug exposure, wash, another 48 hr
[4] = Homo sapiens, CCRF-CEM, read-out: IC50 CCRF-CEM 24 h, 24 h drug exposure, wash, another 48 hr
[5] = Homo sapiens, CCRF-CEM, read-out: IC50 CEM/dCK- 24 h, 24 h drug exposure, wash, another 48 hr
[6] = read-out: IC50 MCF-7 24 h, 24 h drug exposure, wash, another 48 hr
[7] = read-out: IC50 CCRF-CEM 24 h, 24 h drug exposure, wash, another 48 hr
[8] = read-out: IC50 H-460 24 h, 24 h drug exposure, wash, another 48 hr
[9] = read-out: IC50 SF-268 24 h, 24 h drug exposure, wash, another 48 hr
[10] = read-out: IC50 CEM/dCK- 24 h, 24 h drug exposure, wash, another 48 hr

Compound	IC50 (H-460; [1]) [nM]	IC50 (MCF-7; [2]) [nM]	IC50 (SF-268; [3]) [nM]	IC50 (CCRF-CEM; [4]) [nM]	IC50 (CEM/dCK-; [5]) [nM]	Factor* (Resistance Factor = Ratio of dCK- on Wild-type CCRF-CEM) (CEM/dCK-)	IC50 (CCRF-CEM; [7]) [nM]	further results
CCC(C)(C)OC(C)OC[C@H]1OC[C@@H](n2ccc(N)nc2=O)O1 (mixture of isomers) [Compound 117, 4-AMINO-1-{2-[1-(1,1- DIMETHYL-PROPOXY)- ETHOXYMETHYL]- [1,3]DIOXOLAN-4-YL}-1H- PYRIMIDIN-2-ONE]	460	460	680	180	89000	494	–	–
Nc1ccn([C@@H]2CO[C@H](COC3CCCCO3)O2)c(=O)n1 (stereo in doubt) [Compound 41, 4-AMINO-1-[2- (TETRAHYDRO-PYRAN-2- YLOXYMETHYL)- [1,3]DIOXOLAN-4-YL]-1H- PYRIMIDIN-2-ONE]	40000	91000	> 100000	21000	> 100000	5	–	–
Nc1cc[n+]([C@@H]2CO[C@H](COC(c3ccccc3)(c3ccccc3)c3ccccc3)O2)c(=O)[nH]1 (stereo in doubt) [Compound 53, 4-AMINO-1-(2- TRITYLOXYMETHYL- [1,3]DIOXOLAN-4-YL)-1H- PYRIMIDIN-2-ONE]	8900	10000	10000	2000	37000	19	–	–
Nc1ccn([C@@H]2COC(COCOCc3ccccc3)O2)c(=O)n1 (stereo in doubt) [Compound 56, 4-AMINO-1-(2- BENZYLOXYMETHOXYMETHYL- [1,3]DIOXOLAN-4-YL)-1H- PYRIMIDIN-2-ONE]	7000	2000	25000	1600	> 100000	63	–	–
Nc1ccn([C@@H]2CO[C@H](COC(=O)CCCCCNCc3ccccc3)O2)c(=O)n1.O=C(O)C(F)(F)F.O=C(O)C(F)(F)F (stereo in doubt) [Compound 83, 6-Benzylamino-hexanoic acid 4-(4-amino-2-oxo-2H-pyrimidin-1-yl)-[1,3]dioxolan-2-ylmethyl ester bis trifluoroacetate salt]	–	–	260	22	> 100000	4,545	–	IC50 (H-460; read-out: IC50 H-460 24 h, 24 h drug exposure, wash, another 48 hr, bis trifluoroacetate salt): 54 nM; IC50 (MCF-7; read-out: IC50 MCF-7 24 h, 24 h drug exposure, wash, another 48 hr, bis trifluoroacetate salt): 83 nM
CCCCC(C)C(=O)Nc1ccn([C@@H]2CO[C@H](CO)O2)c(=O)n1 (stereo in doubt) [Compound 96, 2-METHYL-HEXANOIC ACID [1-(2-HYDROXYMETHYL- [1,3]DIOXOLAN-4-YL)-2- OXO-1,2-DIHYDRO- PYRIMIDIN-4-YL]-AMIDE]	–	190	–	1800	> 100000	–	1900	IC50 (MCF-7; [6]): 210 nM
CCCCC(CC)C(=O)Nc1ccn([C@@H]2CO[C@H](CO)O2)c(=O)n1 (stereo in doubt) [Compound 99, 2-ETHYL-HEXANOIC ACID [1-(2-HYDROXYMETHYL- [1,3]DIOXOLAN-4-YL)-2- OXO-1,2-DIHYDRO- PYRIMIDIN-4-YL]-AMIDE]	–	6300	33000	5000	> 100000	>20	–	–
CC(=O)OC[C@H]1OC[C@@H](n2ccc(N)nc2=O)O1 [Compound 27]	–	–	–	–	–	–	–	IC50 (H-460; read-out: IC50 H-460 (72 h), 72 h exposure): 5.3 nM; IC50 (MCF-7; read-out: IC50 MCF-7 (72 h), 72 h exposure): 7.3 nM; IC50 (SF-268; read-out: IC50 SF-268 (72 h), 72 h exposure): 23 nM
CCOC(OCC)OC[C@H]1OC[C@@H](n2ccc(N)nc2=O)O1 [Compound 39, 4-AMINO-1-(2- DIETHOXYMETHOXYMETHYL- [1,3]DIOXOLAN-4-YL)-1H- PYRIMIDIN-2-ONE]	160	–	320	47	> 100000	–	62	IC50 (H-460; [8]): 120 nM; IC50 (SF-268; [9]): 390 nM
Nc1ccn([C@@H]2CO[C@H](COC(=O)Oc3ccccc3)O2)c(=O)n1 [Compound 42, CARBONIC ACID 4-(4- AMINO-2-OXO-2H- PYRIMIDIN-1-YL)- [1,3]DIOXOLAN-2- YLMETHYL ESTER PHENYL ESTER]	10	–	22	2.2	82000	–	2.3	IC50 (H-460; [8]): 7 nM; IC50 (SF-268; [9]): 26 nM; IC50 (CEM/dCK-; [10]): > 100000 nM
Nc1ccn([C@@H]2CO[C@H](COC(=O)OCc3ccccc3)O2)c(=O)n1 [Compound 57, CARBONIC ACID 4-(4- AMINO-2-OXO-2H- PYRIMIDIN-1-YL)- [1,3]DIOXOLAN-2- YLMETHYL ESTER BENZYL ESTER]	–	19	47	4.8	32000	–	–	–
CC(C)(C(=O)Nc1ccn([C@@H]2CO[C@H](CO)O2)c(=O)n1)c1ccccc1[N+](=O)[O-] [Compound 60, (2S,4S)--2- HYDROXYMETHYL-4-N-[2″- (2″′-NITROPHENYL)-2″- METHYLPROPIONYL]- CYTOSINE-1′-YL-1,3- DIOXOLANE]	2000	860	–	290	2900	–	310	IC50 (H-460; [8]): 3100 nM; IC50 (MCF-7; [6]): 950 nM; IC50 (CEM/dCK-; [10]): 1800 nM
CC(C)OC(=O)OC[C@H]1OC[C@@H](n2ccc(N)nc2=O)O1.O=C(O)C(F)(F)F [Compound 67, CARBONIC ACID 4-(4- AMINO-2-OXO-2H- PYRIMIDIN-1-YL)- [1,3]DIOXOLAN-2- YLMETHYL ESTER ISOPROPYL ESTER TRIFLUOROACETATE SALT]	82	–	400	180	> 100000	556	–	–
CCCCC(C)(C)C(=O)OC[C@H]1OC[C@@H](n2ccc(/N=C\N(C)C)nc2=O)O1 [Compound 72, (2S,4S)-2-(2″- DIMETHYLHEXANOICOXYMETH YL)-4-(4′-N,N- DIMETHYLAMINOMETHYLENE- CYTOSIN-1′-YL)-1,3- DIOXOLANE]	18	15	130	–	23000	–	–	IC50 (H-460; [8]): 27 nM; IC50 (MCF-7; [6]): 17 nM; IC50 (SF-268; [9]): 75 nM
CCCCOC(C)OC[C@H]1OC[C@@H](n2ccc(N)nc2=O)O1 (stereo partly shown) [Compound 97, 4-AMINO-1-[2-(1-BUTOXY- ETHOXYMETHYL)- [1,3]DIOXOLAN-4-YL]-1H- PYRIMIDIN-2-ONE]	22000	5000	–	9200	> 100000	–	5900	IC50 (MCF-7; [6]): 4000 nM
CC(C)c1ccc(NC(=O)OC[C@H]2OC[C@@H](n3ccc(N)nc3=O)O2)cc1 [Compound 127, (4-ISOPROPYL-PHENYL)- CARBAMIC ACID 4-(4- AMINO-2-OXO-2H- PYRIMIDIN-1-YL)- [1,3]DIOXOLAN-2- YLMETHYL ESTER]	–	16000	–	15000	> 100000	–	22000	IC50 (MCF-7; [6]): 15000 nM
CCCCCCCCCCNC(=O)OC[C@H]1OC[C@@H](n2ccc(N)nc2=O)O1 [Compound 137, DECYL-CARBAMIC ACID 4- (4-AMINO-2-OXO-2H- PYRIMIDIN-1-YL)- [1,3]DIOXOLAN-2- YLMETHYL ESTER]	–	–	18400	5000	84000	–	6500	IC50 (SF-268; [9]): 16000 nM; IC50 (CEM/dCK-; [10]): 53000 nM
CC(CCCCN(Cc1ccccc1)C(=O)OC(C)(C)C)C(=O)OC[C@H]1OC[C@@H](n2ccc(/N=C/N(C)C)nc2=O)O1 (stereo partly shown) [Compound 149, 6-(Benzyl-tert-butoxycarbonyl-amino)-methyl-hexanoic acid 4-[4-(dimethylamino-methyleneamino)-2-oxo-2H-pyrimidin-1-yl]-[1,3]dioxolan-2-ylmethyl ester]	–	–	–	< 0.1	2000	–	0.12	IC50 (CEM/dCK-; [10]): > 1800 nM
CC(C)(C)C(=O)OC[C@H]1OC[C@@H](n2ccc(N)nc2=O)O1 [Compound 279, 2,2-DIMETHYL-PROPIONIC ACID 4-(4-AMINO-2-OXO- 2H-PYRIMIDIN-1-YL)- [1,3]DIOXOLAN-2-YL METHYL ESTER]	580	240	390	–	–	–	–	IC50 (H-460; Homo sapiens, NCI-H460, read-out: IC50 H-460 (72 h), 72 h exposure): 73 nM; IC50 (MCF-7; Homo sapiens, MCF7, read-out: IC50 MCF-7 (72 h), 72 h exposure): 21 nM; IC50 (SF-268; Homo sapiens, SF-268, read-out: IC50 SF-268 (72 h), 72 h exposure): 44 nM
